Tested on: C57BL/6 mouse model of alopecia
Assay: Topical administration and hair growth in C57BL/6 mouse model of alopecia (telogen phase, clipped dorsal skin)
Assay type: in vivo
Details: for animals with visual melanogenesis in peeled skin: end of study; for day of skin colour change from pink to light grey (transition from telogen to anagen phase): after hair growth induction; for adverse effects in relation to general health or body weight: topical twice daily, 5 days/week, 4 weeks, compared to vehicle group
Source text: Dorsal hair of C57BL/6 mouse is known to have a time synchronized hair cycle. From about 18-21 days of age (2-3 weeks old) and 47-95 days of age (6-14 weeks old), the dorsal hair are in the telogen/quiescent phase (visually pink skin) [Lee B H, Lee J S, Kim Y C. Hair growth-promoting effects of lavender oil in C57BL/6 mice. Toxicol Res. (2016) 32(2):103-108; Choi H I, Kang B M, Jang J, Hwang S T, Kwon O. Novel effect of sildenafil on hair growth. Biochem Biophys Res Commun. (2018) 505(3):685-691]. C57BL/6 mouse therefore is a well-established model for studying hair growth promotion.
Male and female C57BL/6 mice of 6 to 9 weeks of age in stable telogen phase of hair growth cycle were used (obtained from Vivo Bio Tech Ltd, Telangana, India).
50 μL of a clear solution of respective 0.02%, 0.002% and 0.0002% (w/v) concentrations of Cpd 1 in the corresponding vehicle (PEG-400:EtOH/7:3) (PEG-400: Central Drug House Ltd. Dehli, India; Ethanol: Changshu Hongsheng fine chemicals Co. Ltd. China) and the positive control, 2% solution (female) or 5% (male) (w/v) Minoxidil (Chemieliva, China) in the corresponding vehicle (PEG-400:EtOH/7:3) were topically applied to the clipped area on the dorsal back of the mice. The solutions covered a circular area of approximately 2 cm^2. The treatment regimen was twice daily application for 5 days/week for total of 4 weeks.
The selected animals on day 1 weighted on average 20.05 g±0.17 ranging from 19.8 to 20.2 g. The hair on the dorsal back (approx. 4×4 cm^2) of these animals were clipped without touching the skin of the animal, using an electric clipper, on day 0 before the treatment with Cpd 1 and the hair was collected. The treatment followed by visual analysis for anagen onset, skin color change and appearance of any hair growth were monitored. After completion of the experiment, the dorsal skin of all the animals was removed and visual melanogenesis was reported. The skin sections were then preserved in 10% formalin solution for further histopathology analysis.
Animals were observed during 30 days and the hair growth score was recorded on daily basis. The criteria for scoring of hair growth is as follows: no hair growth, pink skin—score 0; skin colour changes from pink to grey/light grey without visible hair growth—score 0.5 onset of anagen (skin colour changes from grey/light grey to dark grey/black without visible hair growth)—score 1; sparse hair growth—score 1.5; diffuse short hair growth—score 2, moderate hair growth—score 2.5 and dense, normal coat hair—score 3 (Lee B H, Lee J S, Kim Y C. Hair growth-promoting effects of lavender oil in C57BL/6 mice. Toxicol Res. (2016) 32(2):103-108).
Photographs of the animals were captured before the initiation and during the course of the study.
After completion of the experiments all animals were sacrificed by euthanasia (Choi H I, Kang B M, Jang J, Hwang S T, Kwon O. Novel effect of sildenafil on hair growth. Biochem Biophys Res Commun. (2018) 505(3):685-691). The dorsal skin of each animal was then removed by peeling. The peeled skin was spread and checked visually for the induction of melanogenesis indicated by visual blackening on the reverse side of the skin. The skin samples were evenly spread on a pre-labelled glass slide and kept in 10% formalin until further use. Later, the skin samples were embedded in paraffin and sectioned at 5 microns using a microtome and the corresponding slides per animal were prepared. The slides obtained were used for Haematoxylin & Eosin (H&E) staining and in the transverse and longitudinal sections' photomicrographs data, the total number of follicles in the dermis and the sub cutis were determined for each animal. The skin thickness was measured using Image J 1.44 software.
The statistical analyses were performed using GraphPad Prism 9.0.0 software. Statistical significance was determined by One-way or Two-Way ANOVA followed by Tukey's multiple comparison test. […]

CCCOc1ccc(S(=O)(=O)N2CCC(CCO[N+](=O)[O-])(CCO[N+](=O)[O-])CC2)cc1-c1nc2c(CCC)cn(CC)c2c(=O)[nH]1 [Cpd 1, (1-((3-(5-ethyl-4-oxo-7-propyl-4,5-dihydro-3H-pyrrolo[3,2-d]pyrimidin-2-yl)-4-propoxyphenyl)sulfonyl)piperidine-4,4-diyl)bis(ethane-2,1-diyl) dinitrate]
number of follicles in the subcutis layer of the skin and total follicle counts compared to control group (female mice): considerable higher number | animals with visual melanogenesis in peeled skin (female mice, 0.0002% (w/v)): 2/5 | anagen hair follicles (histology, H&E) compared to vehicle and 2% Minoxidil (female mice, 0.0002% and 0.002% groups): more | day of skin colour change from pink to light grey (transition from telogen to anagen phase) (female mice, 0.002% (w/v)): 10 day | hair growth score among treatment groups (female mice, 0.002% (w/v), at day 30, followed by low dose groups and Minoxidil group): maximal | animals with visual melanogenesis in peeled skin (female mice, 0.002% (w/v)): 2/5 | hair growth (score) compared to vehicle group (female mice, 0.002% (w/v), from day 26 on): significantly higher | skin thickness compared to vehicle and 2% Minoxidil groups (female mice, Cpd 1 treatment): increased | area of black skin compared to control groups (female mice, at day 24): larger | adverse effects in relation to general health or body weight (female mice): No adverse effects | number of follicles in the subcutis layer of the skin and total follicle counts compared to control group (male mice): considerable higher number | skin thickness compared to vehicle group (male mice, 0.002% (w/v)): increased | hair growth (score) compared to vehicle (male mice, 0.002% (w/v) in PEG-400:EtOH/7:3, from day 5 on): significantly higher | day of skin colour change from pink to light grey (transition from telogen to anagen phase) (male mice, 0.002% (w/v)): 10 day | hair growth compared to vehicle group (male mice, 0.002% (w/v), at day 22): significantly higher | animals with visual melanogenesis in peeled skin (male mice, 0.002% (w/v)): 2/5 | hair growth (score) compared to 5% Minoxidil (male mice, 0.002% (w/v), from day 15): significant increase | anagen hair follicles (histology, H&E) (male mice, Cpd 1-treated groups): more | adverse effects in relation to general health or body weight (male mice): No adverse effects

From US20250161309A1, “TOPICAL COMPOSITIONS AND USES THEROF” (TOPADUR PHARMA AG, priority 2022, published 2025)
